Test results from patent US20260297042A1, “BIARYLAMIDE DERIVATIVES AND THEIR USE AS PKMYT1 INHIBITORS” (CANCER RESEARCH TECHNOLOGY LIMITED, priority 2023, published 2026).
pIC50: −log10 of the molar value.

What was measured:
[1] = target: T1, Human PKMYT1 (Homo sapiens, UniProt Q99640); experiment: PKMYT1 biochemical ADP-Glo enzymatic assay; details: PKMYT1 kinase domain 15 nM; ADP-Glo; banded values
T1 construct: Human PKMYT1 75-362 was cloned as a TEV cleavable 6xHis fusion; 6xHis (TEV cleavable) (cleaved yes); made in house; host or cells: bacterial cells
T1 sequence (Q99640 75-362): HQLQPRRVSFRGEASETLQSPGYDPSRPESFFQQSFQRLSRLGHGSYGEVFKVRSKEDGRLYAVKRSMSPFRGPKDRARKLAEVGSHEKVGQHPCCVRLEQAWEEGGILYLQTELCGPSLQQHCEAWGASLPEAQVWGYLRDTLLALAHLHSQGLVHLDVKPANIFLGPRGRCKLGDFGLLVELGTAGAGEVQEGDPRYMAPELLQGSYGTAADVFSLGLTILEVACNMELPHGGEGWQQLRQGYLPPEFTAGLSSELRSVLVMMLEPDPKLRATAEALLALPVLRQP
Method in brief: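 Luminescent ADP-Glo Max read-out of ADP produced by 15 nM PKMYT1 (residues 75-362, bacterial, His-tag removed) from 500 µM ATP without peptide substrate. Reaction: 50 mM HEPES pH 7.5, 10 mM MgCl2, 1 mM EGTA, 0.01% Brij-35, 60 min, 26 °C. IC50 values fitted from 10-point curves.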

[2] = target: T2, WEE1 (Homo sapiens, UniProt P30291); experiment: Selectivity versus WEE1 assay (ADP-Glo enzymatic assay); assay type: biochemical; details: for pIC50: WEE1 15 nM, ADP-Glo, banded values; for PKMYT1 vs. WEE1 selectivity: fold difference in selectivity for PKMYT1 over WEE1, banded
T2 construct: purchased Thermo Fisher PR7373A
T2 sequence (P30291 whole entry): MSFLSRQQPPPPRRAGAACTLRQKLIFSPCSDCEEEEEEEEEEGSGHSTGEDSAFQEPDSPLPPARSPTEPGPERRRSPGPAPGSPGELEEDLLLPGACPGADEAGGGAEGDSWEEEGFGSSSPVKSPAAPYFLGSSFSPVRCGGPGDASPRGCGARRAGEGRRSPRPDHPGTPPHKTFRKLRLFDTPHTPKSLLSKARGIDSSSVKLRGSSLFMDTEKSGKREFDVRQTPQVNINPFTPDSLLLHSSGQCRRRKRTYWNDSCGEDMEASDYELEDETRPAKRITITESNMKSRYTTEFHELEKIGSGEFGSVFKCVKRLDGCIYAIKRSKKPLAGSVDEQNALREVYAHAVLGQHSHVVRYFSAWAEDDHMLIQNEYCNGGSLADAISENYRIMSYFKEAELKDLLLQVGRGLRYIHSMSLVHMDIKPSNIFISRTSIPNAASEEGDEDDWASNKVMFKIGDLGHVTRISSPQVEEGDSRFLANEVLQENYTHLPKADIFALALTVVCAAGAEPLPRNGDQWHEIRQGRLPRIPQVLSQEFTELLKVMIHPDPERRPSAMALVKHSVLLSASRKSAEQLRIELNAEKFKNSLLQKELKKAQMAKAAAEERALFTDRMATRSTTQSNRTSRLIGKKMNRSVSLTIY
Method in brief: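 ADP-Glo luminescence read-out after a 60 min reaction at 26° C, initiated by 30 µM ATP, with 15 nM enzyme in HEPES pH 7.5/MgCl2/EGTA/Brij-35 buffer containing 1% DMSO. Replicate IC50 values had to agree within 3-fold and fits needed r2 >0.9.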

[3] = test system: OVCAR 3 cells; experiment: Cancer cell line proliferation assay, ATP-based cell viability (Cell Titre Glow), OVCAR 3 (CCNE1-amplified); details: KYSE30 (normal CCNE1) GI50 vs. OVCAR 3 (CCNE1-amplified) GI50
Description: (§1) Cancer cell lines with either normal (KYSE-30) or amplified CCNE1 expression (OVCAR 3 —ovarian cancer) were evaluated for their sensitivity to PKMYT1 inhibitors using Cell Titre Glow assay (Promega G7573) as endpoint to assess cell proliferation. The luminescence signal was read on a PHERAStar FS microplate reader (BMG Labtech). Data analysis was performed using Microsoft Excel® and Gl50 (concentration that achieves 50% cell growth proliferation inhibition) estimates generated with GraphPad Prism v9.

[4] = test system: KYSE-30 cells; experiment: Cancer cell line proliferation assay, ATP-based cell viability (Cell Titre Glow), KYSE-30 (normal CCNE1); details: Homo sapiens, KYSE-30 cells (normal CCNE1), concentration that achieves 50% cell growth proliferation inhibition, read-out: KYSE30 Gl50
Description: as §1

pIC50 [1]	pIC50 [2]	PKMYT1 vs. WEE1 selectivity [2]	SMILES	Selectivity ratio KYSE30 Gl50 vs. OVCAR3 Gl50 [3]	GI50 [4]
6.00 to 7.30	< 4.96	X (100-<1000 fold)	Cc1cn(-c2ncc(C(=O)Nc3c(C)ccc(O)c3C)s2)nc1Nc1ncc(C(=O)Nc2c(C)ccc(O)c2C)s1 [BAA-393, N-(3-hydroxy-2,6-dimethylphenyl)-2-((1-(5-((3-hydroxy-2,6-dimethylphenyl)carbamoyl)thiazol-2-yl)-4-methyl-1H-pyrazol-3-yl)amino)thiazole-5-carboxamide]	X (3-20 fold)	0.5 to 5 µM
> 7.30	4.96 to 6.00	X (100-<1000 fold)	Cc1ccc(O)c(C)c1NC(=O)c1cnc(Nc2cccc(-c3cnn(C(F)F)c3)n2)s1 [BAA-399, 2-((6-(1-(difluoromethyl)-1H-pyrazol-4-yl)pyridin-2-yl)amino)-N-(3-hydroxy-2,6-dimethylphenyl)thiazole-5-carboxamide]	Y (>20 fold)	0.5 to 5 µM
> 7.30	6.00 to 7.30	W (10-<100 fold)	Cc1ccc(O)c(C)c1NC(=O)c1cnc(Nc2cccc(-c3ncccn3)n2)s1 [BAA-403, N-(3-hydroxy-2,6-dimethylphenyl)-2-((6-(pyrimidin-2-yl)pyridin-2-yl)amino)thiazole-5-carboxamide]	Y (>20 fold)	> 5 µM
> 7.30	4.96 to 6.00	X (100-<1000 fold)	COc1cccc(Nc2ncc(C(=O)Nc3c(C)ccc(O)c3C)s2)n1 [BAA-416, N-(3-hydroxy-2,6-dimethylphenyl)-2-((6-methoxypyridin-2-yl)amino)thiazole-5-carboxamide]	Y (>20 fold)	0.5 to 5 µM
> 7.30	< 4.96	X (100-<1000 fold)	Cc1ccc(O)c(C)c1NC(=O)c1cnc(Nc2cccc(OC(C)C)n2)s1 [BAA-429, N-(3-hydroxy-2,6-dimethylphenyl)-2-((6-isopropoxypyridin-2-yl)amino)thiazole-5-carboxamide]	Y (>20 fold)	< 0.5 µM
> 7.30	4.96 to 6.00	X (100-<1000 fold)	Cc1ccc(O)c(C)c1NC(=O)c1cnc(Nc2ncnc3sccc23)s1 [BAA-447, N-(3-hydroxy-2,6-dimethylphenyl)-2-(thieno[2,3-d]pyrimidin-4-ylamino)thiazole-5-carboxamide]	Y (>20 fold)	> 5 µM
> 7.30	4.96 to 6.00	X (100-<1000 fold)	Cc1ccc(O)c(C)c1NC(=O)c1cnc(Nc2ncnn3cccc23)s1 [BAA-450, N-(3-hydroxy-2,6-dimethylphenyl)-2-(pyrrolo[2,1-f][1,2,4]triazin-4-ylamino)thiazole-5-carboxamide]	X (3-20 fold)	> 5 µM
> 7.30	4.96 to 6.00	X (100-<1000 fold)	Cc1ccc(O)c(C)c1NC(=O)c1cnc(Nc2nn(CC(F)(F)F)c3ccccc23)s1 [BAA-457, N-(3-hydroxy-2,6-dimethylphenyl)-2-((1-(2,2,2-trifluoroethyl)-1H-indazol-3-yl)amino)thiazole-5-carboxamide]	Y (>20 fold)	0.5 to 5 µM
6.00 to 7.30	4.96 to 6.00	X (100-<1000 fold)	CCCn1nc(Nc2ncc(C(=O)Nc3c(C)ccc(O)c3C)s2)c2ccccc21 [BAA-460, N-(3-hydroxy-2,6-dimethylphenyl)-2-((1-propyl-1H-indazol-3-yl)amino)thiazole-5-carboxamide]	Y (>20 fold)	0.5 to 5 µM
> 7.30	4.96 to 6.00	X (100-<1000 fold)	CCn1cc(C)c(Nc2ncc(C(=O)Nc3c(C)ccc(O)c3C)s2)n1 [BAA-477, 2-((1-ethyl-4-methyl-1H-pyrazol-3-yl)amino)-N-(3-hydroxy-2,6-dimethylphenyl)thiazole-5-carboxamide]	Y (>20 fold)	> 5 µM
> 7.30	4.96 to 6.00	X (100-<1000 fold)	CCN(C)C(=O)Cn1cc(C)c(Nc2ncc(C(=O)Nc3c(C)ccc(O)c3C)s2)n1 [BAA-489, 2-((1-(2-(ethyl(methyl)amino)-2-oxoethyl)-4-methyl-1H-pyrazol-3-yl)amino)-N-(3-hydroxy-2,6-dimethylphenyl)thiazole-5-carboxamide]	Y (>20 fold)	> 5 µM
> 7.30	4.96 to 6.00	X (100-<1000 fold)	COCCn1cc(C)c(Nc2ncc(C(=O)Nc3c(C)ccc(O)c3C)s2)n1 [BAA-490, N-(3-hydroxy-2,6-dimethylphenyl)-2-((1-(2-methoxyethyl)-4-methyl-1H-pyazol-3-yl)amino)thiazole-5-carboxamide]	Y (>20 fold)	> 5 µM
> 7.30	4.96 to 6.00	X (100-<1000 fold)	CCCN(C)C(=O)Cn1cc(C)c(Nc2ncc(C(=O)Nc3c(C)ccc(O)c3C)s2)n1 [BAA-491, N-(3-hydroxy-2,6-dimethylphenyl)-2-((4-methyl-1-(2-(methyl(propyl)amino)-2-oxoethyl)-1H-pyrazol-3-yl)amino)thiazole-5-carboxamide]	Y (>20 fold)	> 5 µM
> 7.30	4.96 to 6.00	X (100-<1000 fold)	Cc1cn(CC(=O)N2CCCC2C)nc1Nc1ncc(C(=O)Nc2c(C)ccc(O)c2C)s1 (centres unmarked) [BAA-492, N-(3-hydroxy-2,6-dimethylphenyl)-2-((4-methyl-1-(2-(2-methylpyrrolidin-1-yl)-2-oxoethyl)-1H-pyrazol-3-yl)amino)thiazole-5-carboxamide]	Y (>20 fold)	> 5 µM
6.00 to 7.30	4.96 to 6.00	W (10-<100 fold)	CCn1nc(Nc2ncc(C(=O)Nc3c(C)ccc(O)c3C)s2)cc1C [BAA-495, 2-((1-ethyl-5-methyl-1H-pyrazol-3-yl)amino)-N-(3-hydroxy-2,6-dimethylphenyl)thiazole-5-carboxamide]	Y (>20 fold)	> 5 µM
> 7.30	4.96 to 6.00	X (100-<1000 fold)	Cc1cn(CC(=O)N2CCC(C)C2)nc1Nc1ncc(C(=O)Nc2c(C)ccc(O)c2C)s1 (centres unmarked) [BAA-497, N-(3-hydroxy-2,6-dimethylphenyl)-2-((4-methyl-1-(2-(3-methylpyrrolidin-1-yl)-2-oxoethyl)-1H-pyrazol-3-yl)amino)thiazole-5-carboxamide]	Y (>20 fold)	> 5 µM
> 7.30	4.96 to 6.00	X (100-<1000 fold)	Cc1cn(CC(C)O)nc1Nc1ncc(C(=O)Nc2c(C)ccc(O)c2C)s1 (centres unmarked) [BAA-499, N-(3-hydroxy-2,6-dimethylphenyl)-2-((1-(2-hydroxypropyl)-4-methyl-1H-pyrazol-3-yl)amino)thiazole-5-carboxamide]	Y (>20 fold)	> 5 µM
> 7.30	4.96 to 6.00	X (100-<1000 fold)	CCN(CC(F)(F)F)C(=O)Cn1cc(C)c(Nc2ncc(C(=O)Nc3c(C)ccc(O)c3C)s2)n1 [BAA-502, 2-((1-(2-(ethyl(2,2,2-trifluoroethyl)amino)-2-oxoethyl)-4-methyl-1H-pyrazol-3-yl)amino)-N-(3-hydroxy-2,6-dimethylphenyl)thiazole-5-carboxamide]	Y (>20 fold)	> 5 µM
> 7.30	4.96 to 6.00	X (100-<1000 fold)	Cc1ccc(O)c(C)c1NC(=O)c1cnc(Nc2ccn(C(C)C(=O)N3CCCC3)n2)s1 (centres unmarked) [BAA-506, N-(3-Hydroxy-2.6-dimethylphenyl)-2-((1-(1-oxo-1-(pyrrolidin-1-yl)propan-2-yl)-1H-pyrazol-3-yl)amino)thiazole-5-carboxamide]	Y (>20 fold)	> 5 µM
